IC50 data for 30 molecules are collected here from US9624215B2, “Amine derivative or salt thereof” (TOYAMA CHEMICAL CO., LTD., priority 2012, dated 2017).

Structures are written as SMILES.

The assay relates to normal human neonatal foreskin epidermal keratinocytes (NHEK-F). The assay is described as follows: Cell proliferation inhibition test. Format: cell-based. The following applies: Keratinocyte, 72 h, NHEK-F cells, three days incubation, ATPlite or CellTiterGlo, read-out: IC50 (concentration of the compound at which the cell count is reduced by 50%). In short, it runs like this: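 IC50 is the compound level halving cell count relative to untreated wells, with counts from ATP-based luminescence (ATPlite or CellTiterGlo). Readout followed 3 days of compound exposure of overnight-attached neonatal foreskin keratinocytes (2×10^3/well, Humedia-EG2 medium).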
(In ATP-based viability assays light output follows the ATP content of the culture.)
With `O=C(O)c1cc(C2CC2)cnc1Nc1cccc2c1ccn2CC1CCCCO1` (stereo not drawn) [Example 423, 5-cyclopropyl-2-((1-((tetrahydro-2H-pyran-2-yl)methyl)-1H-indol-4-yl)amino)nicotinic acid], the IC50 lay within 10 to 100 nM. `O=C(O)c1cc(C2CC2)cnc1Nc1cccc2c1ccn2CC1CCOC1` (stereo not drawn) [Example 427, 5-cyclopropyl-2-((1-((tetrahydrofuran-3-yl)methyl)-1H-indol-4-yl)amino)nicotinic acid]: the IC50 lay within 10 to 100 nM. As for `O=C(O)c1cc(C2CC2)cnc1Nc1cccc2c1ccn2CC1CCCCC1` [Example 429, 2-((1-(cyclohexylmethyl)-1H-indol-4-yl)amino)-5-cyclopropylnicotinic acid], the figure is at most 10 nM. For `CC(C)Cn1ccc2c(Nc3ncc(C4CC4)cc3C(=O)O)cccc21` [Example 431, 5-cyclopropyl-2-((1-isobutyl-1H-indol-4-yl)amino)nicotinic acid], the IC50 is at most 10 nM.

As to `O=C(O)c1cc(C2CC2)cnc1Nc1cccc2c1ccn2-c1ccccc1` [Example 433, 5-cyclopropyl-2-((1-phenyl-1H-indol-4-yl)amino)nicotinic acid], the IC50 is at most 10 nM. As for `CC(C)n1ccc2c(Nc3ncc(C4CC4)cc3C(=O)O)cccc21` [Example 435, 5-cyclopropyl-2-((1-isopropyl-1H-indol-4-yl)amino)nicotinic acid], the IC50 fell in the range of 10 to 100 nM. To `O=C(O)c1cc(C2CC2)cnc1Nc1cccc2c1ccn2CC1CC1` [Example 437, 5-cyclopropyl-2-((1-(cyclopropylmethyl)-1H-indol-4-yl)amino)nicotinic acid] belongs 10 to 100 nM.

Consider `O=C(O)c1cc(C2CC2)cnc1Nc1ccc2c(ccn2Cc2ccccc2C(F)(F)F)c1` [Example 449, 5-cyclopropyl-2-((1-(2-(trifluoromethyl)benzyl)-1H-indol-5-yl)amino)nicotinic acid], for which the IC50 lay in the range of 10 to 100 nM. For the molecule `O=C(O)c1cc(C2CC2)cnc1Nc1ccc2c(ccn2Cc2ccc(C(F)(F)F)cc2)c1` [Example 451, 5-cyclopropyl-2-((1-(4-(trifluoromethyl)benzyl)-1H-indol-5-yl)amino)nicotinic acid], the IC50 was in the range of 10 to 100 nM. On to `N#Cc1ccccc1Cn1ccc2cc(Nc3ncc(C4CC4)cc3C(=O)O)ccc21` [Example 452, 2-((1-(2-cyanobenzyl)-1H-indol-5-yl)amino)-5-cyclopropylnicotinic acid], for which the IC50 was 10 to 100 nM. For `N#Cc1ccc(Cn2ccc3cc(Nc4ncc(C5CC5)cc4C(=O)O)ccc32)cc1` [Example 454, 2-((1-(4-cyanobenzyl)-1H-indol-5-yl)amino)-5-cyclopropylnicotinic acid], the IC50 was in the range of 10 to 100 nM. Regarding `O=C(O)c1cc(C2CC2)cnc1Nc1ccc2c(ccn2Cc2ccccc2Cl)c1` [Example 459, 2-((1-(2-chlorobenzyl)-1H-indol-5-yl)amino)-5-cyclopropylnicotinic acid], the IC50 is at most 10 nM. In the case of `O=C(O)c1cc(C2CC2)cnc1Nc1ccc2c(ccn2Cc2ccc(Cl)cc2)c1` [Example 461, 2-((1-(4-Chlorobenzyl)-1H-indol-5-yl)amino)-5-cyclopropylnicotinic acid], the IC50 was at most 10 nM. To `Cn1ccc2cc(Nc3ncc(C4CC4)cc3C(=O)O)cc(-c3ccccc3-c3ccccc3)c21` [Example 463, 2-((7-([1,1′-biphenyl]-2-yl)-1-methyl-1H-indol-5-yl)amino)-5-cyclopropylnicotinic acid] belongs at most 10 nM; to `Cn1ccc2cc(Nc3ncc(C4CC4)cc3C(=O)O)cc(-c3cccc(F)c3)c21` [Example 465, 5-cyclopropyl-2-((7-(3-fluorophenyl)-1-methyl-1H-indol-5-yl)amino)nicotinic acid], at most 10 nM; to `COC/C=C/c1cc(Nc2ncc(C3CC3)cc2C(=O)O)cc2ccn(C)c12` [Example 467, (E)-5-cyclopropyl-2-((7-(3-methoxyprop-1-en-1-yl)-1-methyl-1H-indol-5-yl)amino)nicotinic acid], 10 to 100 nM.

Regarding `Cn1ccc2cc(Nc3ncc(C4CC4)cc3C(=O)O)cc(/C=C/C3CC3)c21` [Example 469, (E)-5-cyclopropyl-2-((7-(2-cyclopropylvinyl)-1-methyl-1H-indol-5-yl)amino)nicotinic acid], the IC50 was at most 10 nM. To `Cn1ccc2cc(Nc3ncc(C4CC4)cc3C(=O)O)cc(C3=CCOCC3)c21` [Example 471, 5-cyclopropyl-2-((7-(3,6-dihydro-2H-pyran-4-yl)-1-methyl-1H-indol-5-yl)amino)nicotinic acid] belongs at most 10 nM; to `O=C(O)c1cc(C2CC2)cnc1Nc1cccc2c(N3CCCCC3)nccc12` [Example 473, 5-cyclopropyl-2-(1-(piperidin-1-yl)isoquinolin-5-ylamino)nicotinic acid], 10 to 100 nM. For the molecule `O=C(O)c1cc(C2CC2)cnc1Nc1cccc2c(N3CCOCC3)nccc12` [Example 475, 5-cyclopropyl-2-(1-morpholinoisoquinolin-5-ylamino)nicotinic acid], the IC50 was 100 to 1000 nM.

Turning to `Cc1ccccc1-c1cc(Nc2ncc(C3CC3)cc2C(=O)O)cc2ccn(C)c12` [Example 476, 5-cyclopropyl-2-((1-methyl-7-(o-tolyl)-1H-indol-5-yl)amino)nicotinic acid], the IC50 is at most 10 nM. To `Cc1cccc(-c2cc(Nc3ncc(C4CC4)cc3C(=O)O)cc3ccn(C)c23)c1` [Example 477, 5-cyclopropyl-2-((1-methyl-7-(m-tolyl)-1H-indol-5-yl)amino)nicotinic acid] belongs at most 10 nM. To `Cc1ccc(-c2cc(Nc3ncc(C4CC4)cc3C(=O)O)cc3ccn(C)c23)cc1` [Example 478, 5-cyclopropyl-2-((1-methyl-7-(p-tolyl)-1H-indol-5-yl)amino)nicotinic acid] belongs at most 10 nM.

On to `Cn1ccc2cc(Nc3ncc(C4CC4)cc3C(=O)O)cc(-c3ccccc3C(F)(F)F)c21` [Example 479], for which the IC50 was at most 10 nM. In the case of `Cn1ccc2cc(Nc3ncc(C4CC4)cc3C(=O)O)cc(-c3cccc(C(F)(F)F)c3)c21` [Example 480], the IC50 is at most 10 nM. To `Cn1ccc2cc(Nc3ncc(C4CC4)cc3C(=O)O)cc(-c3ccc(C(F)(F)F)cc3)c21` [Example 481] belongs at most 10 nM. For the molecule `Cn1ccc2cc(Nc3ncc(C4CC4)cc3C(=O)O)cc(-c3cccc(C#N)c3)c21` [Example 483, 2-((7-(3-cyanophenyl)-1-methyl-1H-indol-5-yl)amino)-5-cyclopropylnicotinic acid], the IC50 is at most 10 nM. Regarding `COc1cccc(-c2cc(Nc3ncc(C4CC4)cc3C(=O)O)cc3ccn(C)c23)c1` [Example 486, 5-cyclopropyl-2-((7-(3-methoxyphenyl)-1-methyl-1H-indol-5-yl)amino)nicotinic acid], the IC50 is at most 10 nM. Consider `COc1ccc(-c2cc(Nc3ncc(C4CC4)cc3C(=O)O)cc3ccn(C)c23)cc1` [Example 487, 5-cyclopropyl-2-((7-(4-methoxyphenyl)-1-methyl-1H-indol-5-yl)amino)nicotinic acid], for which the IC50 is at most 10 nM. For `Cn1ccc2cc(Nc3ncc(C4CC4)cc3C(=O)O)cc(-c3ccccc3Cl)c21` [Example 488, 2-((7-(2-chlorophenyl)-1-methyl-1H-indol-5-yl)amino)-5-cyclopropylnicotinic acid], the IC50 is at most 10 nM.
